Patent US20020061836A1, “Methods for altering SXR activation using peptide mimetic HIV protease inhibitor SXR ligands” (priority 2000, published 2002)
pEC50: −log10 of the molar value.

Assays:
[1] = biological target: T1, human SXR ligand binding domain (Homo sapiens, UniProt O75469); assay: Gal-L-SXR (Gal-SXR) Gal4 reporter transient transfection assay in CV-1 cells
T1 sequence (O75469 107-434 limits assumed): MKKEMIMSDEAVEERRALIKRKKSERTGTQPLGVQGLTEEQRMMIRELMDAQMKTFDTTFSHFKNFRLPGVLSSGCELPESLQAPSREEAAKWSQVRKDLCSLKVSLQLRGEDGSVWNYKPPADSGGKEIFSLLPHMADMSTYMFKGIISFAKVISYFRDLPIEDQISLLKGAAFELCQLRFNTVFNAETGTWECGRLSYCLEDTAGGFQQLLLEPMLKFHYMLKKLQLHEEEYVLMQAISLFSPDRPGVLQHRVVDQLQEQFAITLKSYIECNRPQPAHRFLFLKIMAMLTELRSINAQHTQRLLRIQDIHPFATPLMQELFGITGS
Description: Use of a standard model heterologous cell system to reconstitute SXR agonist and antagonist responsiveness allows SXR activity to be monitored in the absence of the metabolic events which may obscure the process being tested. Any suitable heterologous cell system may be used to test the activation of potential or known SXR nuclear receptor ligands, as long as the cells are capable of being transiently transfected with the appropriate DNA which expresses receptors, reporter genes, response elements, and the like. Cells which constitutively express one or more of the necessary genes may be used as well. Cell systems that are suitable for the transient expression of mammalian genes and which are amenable to maintenance in culture are well known to those skilled in the art. […] Suitable reporter gene constructs are well known to skilled workers in the fields of biochemistry and molecular biology. Activity of the reporter gene can be conveniently normalized to the internal control and the data plotted as fold activation relative to untreated cells.
(§1) The Gal4 reporter activity was normalized to the internal β-galactosidase control and the data plotted as fold activation relative to untreated cells. All transfections contained the Gal4 reporter and a β-galactosidase expression vector as an internal control.
Izbicka et al., Ann. Oncol.
Gal-PXR containing the ligand binding domain of mouse PXR (#AF031814) was obtained from Bruce Blumberg.
Transient Transffection Assays—CV-1 cells were grown and transfected as described.

[2] = biological target: T2, human RXRα ligand binding domain (Homo sapiens, UniProt P19793); assay: Gal-L-RXR Gal4 reporter transient transfection assay in CV-1 cells; type: cell-based; details: 10 μM paclitaxel
T2 construct: expressed in transfected cells; host or cells: CV-1
T2 sequence (P19793 203-462): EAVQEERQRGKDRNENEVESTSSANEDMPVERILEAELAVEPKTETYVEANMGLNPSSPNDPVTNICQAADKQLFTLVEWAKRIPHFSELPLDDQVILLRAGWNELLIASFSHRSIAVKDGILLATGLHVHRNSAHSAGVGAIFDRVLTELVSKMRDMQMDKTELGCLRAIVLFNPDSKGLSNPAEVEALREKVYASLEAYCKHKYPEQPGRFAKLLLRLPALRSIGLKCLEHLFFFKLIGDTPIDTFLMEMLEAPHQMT
Description: as §1

human VDR = biological target: T3, human VDR (Homo sapiens, UniProt P11473); assay: Nuclear receptor specificity transfection assay; type: cell-based; details: 10 μM paclitaxel
T3 construct: expressed in transfected cells; host or cells: CV-1

human RARα = biological target: T4, human RARα (Homo sapiens, UniProt P10276); assay: Nuclear receptor specificity transfection assay; type: cell-based; details: 10 μM paclitaxel
T4 construct: expressed in transfected cells; host or cells: CV-1

human LXRα = biological target: T5, human LXRα (Homo sapiens, UniProt Q13133); assay: Nuclear receptor specificity transfection assay; type: cell-based; details: 10 μM paclitaxel
T5 construct: expressed in transfected cells; host or cells: CV-1
T5 sequence (Q13133 1-447): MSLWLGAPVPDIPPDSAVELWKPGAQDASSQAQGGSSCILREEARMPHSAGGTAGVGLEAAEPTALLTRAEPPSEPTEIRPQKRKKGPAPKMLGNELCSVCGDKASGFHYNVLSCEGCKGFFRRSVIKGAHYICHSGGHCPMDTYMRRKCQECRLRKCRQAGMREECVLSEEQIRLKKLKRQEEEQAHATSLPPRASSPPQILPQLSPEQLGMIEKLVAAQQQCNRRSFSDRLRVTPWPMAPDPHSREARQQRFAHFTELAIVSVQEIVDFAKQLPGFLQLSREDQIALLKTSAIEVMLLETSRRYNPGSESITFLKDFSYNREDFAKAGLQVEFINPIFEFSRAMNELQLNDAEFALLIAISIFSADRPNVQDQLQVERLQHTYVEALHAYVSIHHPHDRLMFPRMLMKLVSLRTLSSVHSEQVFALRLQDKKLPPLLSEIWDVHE

mouse PPARα = biological target: T6, mouse PPARα (Mus musculus, UniProt P23204); assay: Nuclear receptor specificity transfection assay; type: cell-based; details: 10 μM paclitaxel
T6 construct: expressed in transfected cells; host or cells: CV-1
T6 sequence (P23204 1-468): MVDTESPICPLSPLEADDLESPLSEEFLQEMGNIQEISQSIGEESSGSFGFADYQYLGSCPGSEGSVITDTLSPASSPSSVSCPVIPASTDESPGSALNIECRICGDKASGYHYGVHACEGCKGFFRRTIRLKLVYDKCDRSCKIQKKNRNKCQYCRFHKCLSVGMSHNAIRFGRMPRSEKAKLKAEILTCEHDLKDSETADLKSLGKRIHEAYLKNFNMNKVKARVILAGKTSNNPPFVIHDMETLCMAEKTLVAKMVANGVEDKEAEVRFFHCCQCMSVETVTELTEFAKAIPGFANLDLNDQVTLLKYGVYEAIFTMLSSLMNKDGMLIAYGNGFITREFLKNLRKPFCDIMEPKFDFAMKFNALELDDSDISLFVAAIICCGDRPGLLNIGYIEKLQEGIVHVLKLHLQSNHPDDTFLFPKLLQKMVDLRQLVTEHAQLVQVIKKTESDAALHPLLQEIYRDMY

mouse PPARγ = biological target: T7, mouse PPARγ (Mus musculus, UniProt P37238); assay: Nuclear receptor specificity transfection assay; type: cell-based; details: 10 μM paclitaxel
T7 construct: expressed in transfected cells; host or cells: CV-1

FXR = biological target: T8, FXR (Homo sapiens, UniProt Q96RI1); assay: Nuclear receptor specificity transfection assay; type: cell-based; details: 10 μM paclitaxel
T8 construct: expressed in transfected cells; host or cells: CV-1

CYP3A4 and CYP2C8 = details: read-out: Km for degradation of paclitaxel by CYP3A4 and CYP2C8; cited from earlier work

T7 sequence (P37238 whole entry): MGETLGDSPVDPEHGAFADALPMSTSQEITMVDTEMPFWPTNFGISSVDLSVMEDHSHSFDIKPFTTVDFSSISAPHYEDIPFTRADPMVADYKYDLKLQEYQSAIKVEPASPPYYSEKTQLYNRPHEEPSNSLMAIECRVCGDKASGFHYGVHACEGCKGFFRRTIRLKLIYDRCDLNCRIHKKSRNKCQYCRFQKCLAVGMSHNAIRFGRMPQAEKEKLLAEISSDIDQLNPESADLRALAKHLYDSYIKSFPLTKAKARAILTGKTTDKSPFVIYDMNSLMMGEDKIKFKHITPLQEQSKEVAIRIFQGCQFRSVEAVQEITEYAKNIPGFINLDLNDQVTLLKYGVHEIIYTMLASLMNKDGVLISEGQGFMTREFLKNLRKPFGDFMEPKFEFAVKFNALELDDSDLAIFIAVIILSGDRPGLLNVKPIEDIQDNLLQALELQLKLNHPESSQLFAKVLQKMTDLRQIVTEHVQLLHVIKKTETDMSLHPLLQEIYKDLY
T8 sequence (Q96RI1 whole entry, species assumed): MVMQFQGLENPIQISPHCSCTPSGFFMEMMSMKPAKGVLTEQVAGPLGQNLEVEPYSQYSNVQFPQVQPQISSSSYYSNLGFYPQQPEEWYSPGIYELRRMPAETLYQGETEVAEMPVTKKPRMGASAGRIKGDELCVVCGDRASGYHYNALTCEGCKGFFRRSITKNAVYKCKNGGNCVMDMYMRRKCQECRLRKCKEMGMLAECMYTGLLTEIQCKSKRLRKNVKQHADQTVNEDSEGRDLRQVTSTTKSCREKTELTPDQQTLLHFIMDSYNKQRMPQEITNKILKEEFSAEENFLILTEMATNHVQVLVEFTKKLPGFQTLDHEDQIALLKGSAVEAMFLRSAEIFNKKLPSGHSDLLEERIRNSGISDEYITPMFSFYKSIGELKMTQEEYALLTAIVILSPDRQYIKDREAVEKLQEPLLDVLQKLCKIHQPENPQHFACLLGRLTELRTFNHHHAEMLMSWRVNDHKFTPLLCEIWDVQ
T3 sequence (P11473 whole entry): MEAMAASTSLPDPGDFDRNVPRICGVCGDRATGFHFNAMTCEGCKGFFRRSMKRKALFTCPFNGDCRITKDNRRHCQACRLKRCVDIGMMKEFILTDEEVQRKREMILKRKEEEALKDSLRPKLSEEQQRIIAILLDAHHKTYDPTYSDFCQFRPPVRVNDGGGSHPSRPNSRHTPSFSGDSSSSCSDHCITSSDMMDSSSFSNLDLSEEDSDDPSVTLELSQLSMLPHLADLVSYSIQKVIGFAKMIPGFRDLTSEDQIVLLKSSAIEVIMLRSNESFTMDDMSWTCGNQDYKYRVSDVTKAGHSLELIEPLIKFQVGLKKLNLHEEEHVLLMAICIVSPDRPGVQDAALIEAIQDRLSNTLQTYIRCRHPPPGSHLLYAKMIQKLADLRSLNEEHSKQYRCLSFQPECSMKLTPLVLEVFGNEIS
T4 sequence (P10276 whole entry): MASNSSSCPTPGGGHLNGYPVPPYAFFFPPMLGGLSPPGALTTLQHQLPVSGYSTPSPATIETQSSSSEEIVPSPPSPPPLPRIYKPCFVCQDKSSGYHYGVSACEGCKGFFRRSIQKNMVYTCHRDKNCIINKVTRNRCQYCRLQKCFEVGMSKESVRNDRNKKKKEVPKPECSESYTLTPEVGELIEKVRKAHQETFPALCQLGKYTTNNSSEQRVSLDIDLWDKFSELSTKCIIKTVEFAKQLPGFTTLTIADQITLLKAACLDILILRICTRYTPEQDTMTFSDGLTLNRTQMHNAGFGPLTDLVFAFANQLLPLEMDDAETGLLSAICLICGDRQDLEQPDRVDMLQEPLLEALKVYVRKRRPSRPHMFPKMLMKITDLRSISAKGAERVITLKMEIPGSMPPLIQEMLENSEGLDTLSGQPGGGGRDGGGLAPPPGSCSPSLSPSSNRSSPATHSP

- pEC50 [1]: ~5.30
- effect on RXR reporter activity [2]: no effect
- effect on VDR reporter activity (human VDR): no effect
- effect on RARα reporter activity (human RARα): no effect
- effect on LXRα reporter activity (human LXRα): no effect
- effect on PPARα reporter activity (mouse PPARα): no effect
- effect on PPARγ reporter activity (mouse PPARγ): no effect
- effect on FXR reporter activity (FXR): no effect
SMILES: CC(=O)O[C@H]1C(=O)[C@@]2(C)[C@H]([C@H](OC(=O)c3ccccc3)[C@]3(O)C[C@H](OC(=O)[C@H](O)[C@@H](NC(=O)c4ccccc4)c4ccccc4)C(C)=C1C3(C)C)[C@]1(OC(C)=O)CO[C@@H]1C[C@@H]2O [paclitaxel]
- Km (CYP3A4 and CYP2C8): ~10 µM
